Experimental data published in US20190194279A1, “Wound Healing Peptide” (James Cook University, priority 2016, published 2019).
“Also recorded” adds a separate entry of the source. Where no end group is shown, it is not given here.

Experiments:
H69 human cholangiocytes = assay: Cell proliferation monitoring in real time using xCELLigence (Example 1, day 4); format: cell-based; settings: for increase in cell proliferation over peptide controls: at 400 nM; for cell proliferation, result in words: concentrations tested 10 nM-2 μM
Description: Mammalian Cell Culture The non-malignant cholangiocyte cell line H69 is a SV40-transformed human bile duct epithelial cell line derived from human liver, kindly provided by Dr. Gregory J. Gores, Mayo Clinic, Rochester, Minn. H69 cells^23, 29, 30 were maintained in T75 cm^2 vented flasks (Corning) as monolayers as described^31 with minor modifications. Cells were maintained with regular splitting using 0.25% trypsin (Life Technologies) every 2-5 days in complete media [RPMI (Sigma) with growth factor-supplemented specialist complete media^30 [DMEM/F12 with high glucose, 10% FCS, 1×antibiotic/antimycotic, 25 μg/ml adenine, 5 μg/ml insulin, 1 μg/ml epinephrine, 8.3 μg/ml holo-transferrin, 0.62 μg/ml, hydrocortisone, 13.6 ng/ml T3 and 10 ng/ml EGF—Life Technologies]. Low nutrient media for cell proliferation assays was 5% complete media, i.e. 0.5% FCS and 1/20th of the growth factor concentrations listed above for complete media. The identities (human-derived) of the cell line were confirmed with […] (STR) analysis in January 2015 (15/15 positive loci across 2 alleles) and mycoplasma free at the DNA Diagnostics Centre (DDC)-medical (U.S.A.), accredited/certified by CAP, ISO/IEC 17025:2005 through ACLASS.
Cell proliferation monitoring in real time using xCELLigence Cells were seeded at 1,500 cells/well in 180 μl complete media (above) in E-plates (ACEA Biosciences) and grown overnight while monitored with an xCELLigence SP system (ACEA Biosciences) which monitors cellular events in real time by measuring electrical impedance across interdigitated gold micro-electrodes integrated into the base of tissue culture plates^32. Cells were washed three times with PBS prior to addition of 180 μl of low nutrient media (above) and incubated for a minimum of 6 h before further treatment. Treatments were prepared at 10× concentration and added to each well in a total volume of 20 μl. The xCELLigence system recorded cell indexes at intervals of one hour for 5-6 days following treatment. Readings for the cell index were normalized prior to treatment and cell proliferation ratios were determined from biological quadruplicates and represent the relative numbers of cells compared to control cells at day 4. Comparisons of induction of cell proliferation in response to treatments were accomplished using two-way ANOVA test with Dunnett's multiple comparison correction, using GraphPad Prism 6.02.

[1] = system: skin-deep wound on the crown of the head; format: in vivo, BALB/c mice; settings: mouse; for day 4 wound healing relative to controls, result in words (Example 3): 56 pmoles topical daily days 0-4, relative to peptide control
Method: These studies were conducted with the approval of the James Cook University Small Animal Ethics Committee, applications A1806 and A2204, as described^6. Briefly, 4-5 female BALB/c mice per group were anesthetized (intraperitoneal xylazine 16 mg/kg; ketamine 80 mg/kg), after which a skin-deep wound on the crown of the head was inflicted using a 5 mm biopsy punch (Zivic instruments). […] Wounds were photographed daily and after blinding treatment groups the area of the lesion was measured with ImageJ software and plotted as percent of wound closure from original wound images. […] Each mouse wounding study was conducted at least twice to provide reproducibility.
Day 4 wound healing were assessed using peptides as described herein (Ov-GRN-1, Ov-GRN1-35, Ov-GRN8-38, Ov-GRN12-34, Ov-GRN12-35_3s, GRN24-3ala, GRN24-P2A, GRN24-P4A, and GRN27sps).

H69 cells = assay: Cell proliferation monitoring in real time using xCELLigence (Example 2, 200 nM, 48 h); format: cell-based, human; settings: 200 nM peptide
Method: H69 cell line, non-malignant cholangiocyte cell line was obtained from Dr. Gregory J. Gores, Mayo Clinic, Rochester, Minn.^34. H69 cells were grown and maintained as previously described^34 in DMEM/F12 (Life Technologies) containing 1× antibiotic/antimycotic and 15 mM HEPES, supplemented with 10% fetal bovine serum (FBS) (Gibco, Scotland) at 37 C and 5% incubator. Cell proliferation assays were performed with modified DMEM/F12 media supplemented with 0.5% FBS and particular hormone and growth factors in a certain concentration range as listed in the previous study^34.
Proliferation study in real time was performed using xCELLigence SP system (ACEA Biosciences) as described previously^34. H69 cells were plated into a 96-well xCELLigence E-plate (ACEA Biosciences) at a density of 2000 cells/well; then placed in the xCELLigence system positioned in a 5% CO2 incubator at 37° C. and monitored overnight^47. Then, the complete media was replaced with 180 μl of starvation media (modified DMEM/F12 media supplemented with […] as described previously^34) and incubated for at least 6 hour. Treatments were added to each well in a total volume of 20 μl to provide 200 nM final concentrations. […] Cell proliferation rate was calculated as the relative numbers of treated cells compared to control cells over time (48 hours in culture). […] Each treatment was measured in quadruplicate.

CPDPVYTCRPGQTCCRGLHGYGCC [Ov-GRN12-35_3s]
increase in cell proliferation over peptide controls (H69 human cholangiocytes): 26% | cell proliferation, result in words (H69 human cholangiocytes): most potent peptide in the cell proliferation assay | increase in cell growth compared to control peptide (H69 human cholangiocytes; final concentration of 2 (unit not given), day 4): 41% | final concentrations with significantly increased cell proliferation (p<0.05) (H69 human cholangiocytes; four days after single application): > 15 nM | wound healing activity in vivo compared with the other Ov-GRN-1 peptides, in words [1]: no more active in vivo than the other Ov-GRN-1 peptides | day 4 wound healing relative to controls, result in words (Example 3) [1]: significant increases in wound healing

CPDAVYTCRPGQTCCRGLHGYGCC [P4A]
proliferation rate relative to the control peptide (H69 cells): 141.6%

Ov-GRN1-35: truncated Ov-GRN-1 peptide, residues 1-35, four cysteines, two disulfide bonds, Cys IV and Cys VI replaced with alanine (MDTLQPIRSPSCPDPVYTCRPGQTCARGLHGYGCA; disulfide (positions not given here))
increase in cell proliferation over peptide controls (H69 human cholangiocytes): 9% | day 4 wound healing relative to controls, result in words (Example 3) [1]: significant increases in wound healing

CPDPVYTCRAGQTCCRGLHGYGCC [P10A]
proliferation rate relative to the control peptide (H69 cells): 131.4%

Ov-GRN12-34: minimal Ov-GRN-1 sequence that contains the four cysteine residues, two disulfide bonds (CPDPVYTCRPGQTCARGLHGYGC; disulfide (positions not given here))
day 4 wound healing relative to controls, result in words (Example 3) [1]: significant increases in wound healing

carp granulin1-30: N-terminal 30 residues of carp granulin-1 with Cys IV and Cys VI replaced with alanine residues (VIHCDAATICPDGTTCALSPYGVWYCAPFS) [reference compound]
maximum proliferation over peptide controls (H69 human cholangiocytes; at 32 nM): 9% | cell proliferation, result in words (H69 human cholangiocytes): minimal cell proliferation (non-significant); also recorded: no substantial proliferation

CADPVYTCRPGQTCCRGLHGYGCC [GRN24P2A]
proliferation rate relative to the control peptide (H69 cells): 131.7%

CADAVYTCRAGQTCCRGLHGYGCC [GRN3Ala]
effect on cell proliferation compared to the control peptide, result in words (H69 cells): did not have statistically significant effect | effect on cell proliferation compared to the control peptide, result in words (H69 cells; listed as SEQ ID NO:9): did not enhance cell proliferation

Ov-GRN8-38: truncated Ov-GRN-1 peptide, residues 8-38, two disulfide bonds (RSPSCPDPVYTCRPGQTCARGLHGYGCAPMD; disulfide (positions not given here))
day 4 wound healing relative to controls, result in words (Example 3) [1]: significant increases in wound healing
